Data: PubChem BioAssay AID1918956 (Molecular Pharmacology Branch, DTP, NCI, 2023)

Test system: OVCAR-5 complex spheroids, viability
Assay: Anticancer human tumor OVCAR-5 cell line growth inhibition;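 also: spheroids exposed to agents for seven days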;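 as to viability, T/C: 100% = DMSO vehicle control wells viability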
Settings: for IC50: curve of first compound; for viability, T/C: stronger effect = lower value; active = viability on the fitted dose curve at most 10% of control; inactive = the rest
Procedure, shortened: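 Complex spheroids of tumor cells with HUVEC and human MSCs, exposed to iadademstat combined with other agents. Each agent tested in half-log steps from near clinical Cmax (else 10 microM top), DMSO ≤0.25%.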

[1] = second compound 0.1 µM, first compound 0.0316 µM
[2] = second compound 0.1 µM, first compound 0.1 µM
[3] = second compound 0.1 µM, first compound 0.316 µM
[4] = second compound 0.1 µM, first compound 1 µM
[5] = second compound 0.1 µM, first compound 3.16 µM
[6] = second compound 0.1 µM, first compound 10 µM
[7] = second compound 0.316 µM, first compound 0.0316 µM
[8] = second compound 0.316 µM, first compound 0.1 µM
[9] = second compound 0.316 µM, first compound 0.316 µM
[10] = second compound 0.316 µM, first compound 1 µM
[11] = second compound 0.316 µM, first compound 3.16 µM
[12] = second compound 0.316 µM, first compound 10 µM
[13] = second compound 1 µM, first compound 0.0316 µM
[14] = second compound 1 µM, first compound 0.1 µM
[15] = second compound 1 µM, first compound 0.316 µM
[16] = second compound 1 µM, first compound 1 µM
[17] = second compound 1 µM, first compound 3.16 µM
[18] = second compound 1 µM, first compound 10 µM
[19] = second compound 3.16 µM, first compound 0.0316 µM
[20] = second compound 3.16 µM, first compound 0.1 µM
[21] = second compound 3.16 µM, first compound 0.316 µM
[22] = second compound 3.16 µM, first compound 1 µM
[23] = second compound 3.16 µM, first compound 3.16 µM
[24] = second compound 3.16 µM, first compound 10 µM
[25] = second compound 10 µM, first compound 0.0316 µM
[26] = second compound 10 µM, first compound 0.1 µM
[27] = second compound 10 µM, first compound 0.316 µM
[28] = second compound 10 µM, first compound 1 µM
[29] = second compound 10 µM, first compound 3.16 µM
[30] = second compound 10 µM, first compound 10 µM
[31] = second compound 0.1 µM, first compound 0.00316 µM
[32] = second compound 0.1 µM, first compound 0.01 µM
[33] = second compound 0.316 µM, first compound 0.00316 µM
[34] = second compound 0.316 µM, first compound 0.01 µM
[35] = second compound 1 µM, first compound 0.00316 µM
[36] = second compound 1 µM, first compound 0.01 µM
[37] = second compound 3.16 µM, first compound 0.00316 µM
[38] = second compound 3.16 µM, first compound 0.01 µM
[39] = second compound 10 µM, first compound 0.00316 µM
[40] = second compound 10 µM, first compound 0.01 µM

CC(C)c1c(-c2ccccc2)nc2c(C#N)c[nH]n2c1=O + NC1CC1c1ccc(-c2cccc(O)c2)cc1
inactive: viability, T/C [1] 92.2% | viability, T/C [2] 98.4% | viability, T/C [3] 97.4% | viability, T/C [4] 98.4% | viability, T/C [5] 99.9% | viability, T/C [6] 107% | viability, T/C [7] 98% | viability, T/C [8] 96% | viability, T/C [9] 102% | viability, T/C [10] 102% | viability, T/C [11] 98% | viability, T/C [12] 108% | viability, T/C [13] 87% | viability, T/C [14] 90% | viability, T/C [15] 97.1% | viability, T/C [16] 105% | viability, T/C [17] 96.1% | viability, T/C [18] 104% | viability, T/C [19] 88.3% | viability, T/C [20] 95.4% | viability, T/C [21] 77.8% | viability, T/C [22] 95.6% | viability, T/C [23] 88.8% | viability, T/C [24] 98.9% | viability, T/C [25] 82.2% | viability, T/C [26] 91% | viability, T/C [27] 80.5% | viability, T/C [28] 87.5% | viability, T/C [29] 87.7% | viability, T/C [30] 73.5%
> 10000 nM: IC50 (second compound 0.1 µM) | IC50 (second compound 0.316 µM) | IC50 (second compound 1 µM) | IC50 (second compound 3.16 µM) | IC50 (second compound 10 µM)

CC1COCCN1c1cc(-c2ccnn2C)c2ccnc(-c3ccn[nH]3)c2n1 (stereo not given) + NC1CC1c1ccc(-c2cccc(O)c2)cc1
19.9 nM: IC50 (second compound 10 µM)
31.6 nM: IC50 (second compound 0.1 µM)
inactive: viability, T/C [31] 98.8% | viability, T/C [32] 79.8% | viability, T/C [1] 49% | viability, T/C [2] 35.6% | viability, T/C [3] 31.7% | viability, T/C [4] 27.9% | viability, T/C [33] 105% | viability, T/C [34] 79.1% | viability, T/C [7] 49.6% | viability, T/C [8] 36.5% | viability, T/C [9] 30.4% | viability, T/C [10] 27.9% | viability, T/C [35] 91.3% | viability, T/C [36] 72.8% | viability, T/C [13] 42.3% | viability, T/C [14] 33.4% | viability, T/C [15] 27.3% | viability, T/C [16] 25.8% | viability, T/C [37] 88.9% | viability, T/C [38] 75.1% | viability, T/C [19] 43% | viability, T/C [20] 32.8% | viability, T/C [21] 31.1% | viability, T/C [22] 25.3% | viability, T/C [39] 95.9% | viability, T/C [40] 62.1% | viability, T/C [25] 42.5% | viability, T/C [26] 30.4% | viability, T/C [27] 31.3% | viability, T/C [28] 26%
25.2 nM: IC50 (second compound 3.16 µM)
24.6 nM: IC50 (second compound 1 µM)
33 nM: IC50 (second compound 0.316 µM)

COc1ccc([C@@H](O)c2cc(-c3ncnc4cc(N5CCOCC5)ccc34)c(F)cc2Cl)nn1 + NC1CC1c1ccc(-c2cccc(O)c2)cc1
300 nM: IC50 (second compound 10 µM)
396 nM: IC50 (second compound 3.16 µM)
inactive: viability, T/C [1] 80.8% | viability, T/C [2] 72.6% | viability, T/C [3] 55.3% | viability, T/C [4] 46.4% | viability, T/C [5] 29.5% | viability, T/C [6] 16.4% | viability, T/C [7] 92.3% | viability, T/C [8] 79.1% | viability, T/C [9] 61.4% | viability, T/C [10] 45.3% | viability, T/C [11] 31.8% | viability, T/C [12] 18.1% | viability, T/C [13] 86.3% | viability, T/C [14] 73.4% | viability, T/C [15] 57.1% | viability, T/C [16] 31.7% | viability, T/C [17] 25.8% | viability, T/C [18] 16.7% | viability, T/C [19] 84% | viability, T/C [20] 68% | viability, T/C [21] 49.9% | viability, T/C [22] 38.8% | viability, T/C [23] 31.6% | viability, T/C [24] 15.9% | viability, T/C [25] 79.1% | viability, T/C [26] 65.3% | viability, T/C [27] 46.7% | viability, T/C [28] 36.6% | viability, T/C [29] 29.6% | viability, T/C [30] 16.6%
419 nM: IC50 (second compound 1 µM)
625 nM: IC50 (second compound 0.1 µM)
740 nM: IC50 (second compound 0.316 µM)

Nc1ncn(C2CC(O)C(CO)O2)c(=O)n1 (stereo not given) + NC1CCC(NC2CC2c2ccccc2)CC1
inactive: viability, T/C [31] 103% | viability, T/C [32] 104% | viability, T/C [1] 94.4% | viability, T/C [2] 89.5% | viability, T/C [3] 75.5% | viability, T/C [4] 79% | viability, T/C [33] 97.7% | viability, T/C [34] 104% | viability, T/C [7] 81.4% | viability, T/C [8] 79.6% | viability, T/C [9] 78.4% | viability, T/C [10] 78.4% | viability, T/C [35] 91.8% | viability, T/C [36] 82.3% | viability, T/C [13] 79.6% | viability, T/C [14] 81.3% | viability, T/C [15] 76% | viability, T/C [16] 73.7% | viability, T/C [37] 91.6% | viability, T/C [38] 93.3% | viability, T/C [19] 78.2% | viability, T/C [20] 76.8% | viability, T/C [21] 70.5% | viability, T/C [22] 66.6% | viability, T/C [39] 83.7% | viability, T/C [40] 83.1% | viability, T/C [25] 79.1% | viability, T/C [26] 67.1% | viability, T/C [27] 61.9% | viability, T/C [28] 66%
> 1000 nM: IC50 (second compound 0.1 µM) | IC50 (second compound 0.316 µM) | IC50 (second compound 1 µM) | IC50 (second compound 3.16 µM) | IC50 (second compound 10 µM)
